Measurements: patent US11560372B2, “Heterocyclic compounds useful as modulators of acetylcholine receptors” (TAKEDA PHARMACEUTICAL COMPANY LIMITED, priority 2017, dated 2023)

Target: T1, MDR1 (Homo sapiens, UniProt P08183)
T1 construct: expressed in transfected cells
Experiment: MDR1 membrane permeability test
Type: in vitro ADME
Conditions: pH 7.4, efflux ratio (ER), Papp B to A / A to B, human MDR1-expressing LLC-PK1 cells, read-out: MDR1 substrate screening 1 μM (MDRSUB1)/Ratio (NUMBER)
Description: MDR1 Membrane Permeability Test
When MDR1 is expressed in excess in LLC-PK1 cell, which is a polar cell, MDR1 is localized in apical membrane (A), thus promoting transcellular transport from the basement membrane side (B) toward direction A. When a ratio to the transcellular transport in the opposite direction is taken and a ratio to a control cell in which a mock vector has been introduced is further taken, an efflux ratio of MDR1 to simple diffusion (corrected efflux ratio) is calculated. Similarly, when a brain/plasma concentration ratio in Mdr1(−/−) mouse is divided by a brain/plasma concentration ratio in wild-type mouse, an efflux ratio of Mdr1 to simple diffusion in BBB (Kp, brain ratio, higher value means lower central nervous system permeability) is calculated. Adachi Y. et al. (Reference 1) has reported a positive correlation between corrected efflux ratio and Kp, brain ratio (FIG. 5(C)), and efflux ratio in MDR1 expressing cell and Kp, brain ratio (FIG. 5(B)).
To confirm the central nervous system permeability of the compounds of the present invention, a MDR1 membrane permeability test was performed by the following method.
Human MDR1-expressing LLC-PK1 cells were cultured according to the report of Takeuchi et al. (Reference 2). Human MDR1-expressing LLC-PK1 cells were cultured in 10% fetal bovine serum (Invitrogen), 500 μg/ml G418 (Invitrogen), 150 ng/ml colchicine-containing M199 medium (Invitrogen) under 5% CO2 conditions at 37° C.
Transcellular transport was performed according to the report of Sugimoto et al. (Reference 3). The cells were cultured for 3 days on HTS Transwell (registered trademark) 96 well permeable support (pore size 0.4 μm, 0.143 cm^2 surface area, Corning Life Sciences) having polyethylene terephthalate membrane on which the cells had been seeded at 3.45×10^4 cells/well. After preincubation in M199 medium (containing 10 mmol/L HEPES, 1% BSA, pH 7.4) for 30 min, a drug solution (10 μmol/L digoxin, 200 μmol/L LY, […]) dissolved in M199 medium was added to the apical side or basolateral side of the Transwell by 75 or 250 μL each and the cells were cultured under 5% CO2 conditions at 37° C. After 1 hr, the sample was collected from the side opposite to the side where the drug solution was added, and the concentration of the test compound was measured by LC-MS/MS. As an internal standard substance, 100 ng/mL alprenolol and diclofenac were used. The analysis conditions were as follows.
Papp, A to B and Papp, B to A (apparent permeability) were calculated from the formula (1), and the efflux ratio (ER) was calculated from the formula (2).

T1 sequence (P08183 whole entry): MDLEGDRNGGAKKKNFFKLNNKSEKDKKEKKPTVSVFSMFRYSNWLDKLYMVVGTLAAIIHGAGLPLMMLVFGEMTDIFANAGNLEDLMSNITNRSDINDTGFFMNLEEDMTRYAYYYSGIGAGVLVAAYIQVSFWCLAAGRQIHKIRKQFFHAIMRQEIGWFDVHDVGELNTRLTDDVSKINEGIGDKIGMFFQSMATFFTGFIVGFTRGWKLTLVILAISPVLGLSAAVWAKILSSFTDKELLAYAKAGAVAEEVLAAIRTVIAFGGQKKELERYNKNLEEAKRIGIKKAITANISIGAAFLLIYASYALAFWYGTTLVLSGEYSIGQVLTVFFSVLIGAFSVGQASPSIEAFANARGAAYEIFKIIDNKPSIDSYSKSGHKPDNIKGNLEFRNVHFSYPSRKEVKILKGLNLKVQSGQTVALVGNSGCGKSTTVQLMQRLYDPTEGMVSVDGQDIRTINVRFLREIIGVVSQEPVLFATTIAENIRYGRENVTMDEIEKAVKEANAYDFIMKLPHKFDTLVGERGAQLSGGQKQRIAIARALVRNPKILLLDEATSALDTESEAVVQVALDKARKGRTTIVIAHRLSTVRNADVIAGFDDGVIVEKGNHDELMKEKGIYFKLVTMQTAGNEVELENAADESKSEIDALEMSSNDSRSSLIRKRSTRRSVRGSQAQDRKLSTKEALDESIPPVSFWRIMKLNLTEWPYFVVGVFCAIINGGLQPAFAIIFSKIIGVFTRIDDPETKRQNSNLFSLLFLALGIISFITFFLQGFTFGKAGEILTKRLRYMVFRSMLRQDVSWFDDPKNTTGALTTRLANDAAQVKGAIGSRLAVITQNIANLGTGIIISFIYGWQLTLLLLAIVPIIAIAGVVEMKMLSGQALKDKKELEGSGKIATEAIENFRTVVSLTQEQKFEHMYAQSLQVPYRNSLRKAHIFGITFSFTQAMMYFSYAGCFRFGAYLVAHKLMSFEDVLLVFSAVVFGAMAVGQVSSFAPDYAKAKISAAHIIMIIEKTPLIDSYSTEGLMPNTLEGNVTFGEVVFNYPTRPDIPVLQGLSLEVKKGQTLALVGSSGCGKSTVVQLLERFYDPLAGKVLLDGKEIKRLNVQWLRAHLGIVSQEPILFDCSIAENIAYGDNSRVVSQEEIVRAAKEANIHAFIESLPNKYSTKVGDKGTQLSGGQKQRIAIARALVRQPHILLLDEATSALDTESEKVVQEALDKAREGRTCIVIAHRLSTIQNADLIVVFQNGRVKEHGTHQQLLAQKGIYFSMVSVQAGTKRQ

| SMILES | efflux ratio at 1 hr, 1 μM |
| --- | --- |
| CNC(=O)c1ccc(Cc2cc3c(=O)n([C@H]4CCOC[C@@H]4O)cnc3cc2OC)cc1F [Example 57, 1,5-anhydro-2,3-dideoxy-3-(6-(3-fluoro-4-(methylcarbamoyl)benzyl)-7-methoxy-4-oxoquinazolin-3 (4H)-yl)-L-threo-pentitol] | 16 |
| Cc1c(Cc2ccc(-c3cn(C)nn3)cc2)cc2c(=O)n([C@H]3CCOC[C@@H]3O)cnc2c1Cl [Example 15, 1,5-anhydro-3-(8-chloro-7-methyl-6-(4-(1-methyl-1H-1,2,3-triazol-4-yl)benzyl)-4-oxoquinazolin-3(4H)-yl)-2,3-dideoxy-L-threo-pentitol] | 9.7 |
| Cc1c(Cc2ccc(C(=O)NC3(C(F)F)CC3)cc2)cc2c(=O)n([C@H]3CCOC[C@@H]3O)cnc2c1C [Example 35, 1,5-anhydro-2,3-dideoxy-3-(6-(4-((1-(difluoromethyl)-cyclopropyl)carbamoyl)benzyl)-7,8-dimethyl-4-oxoquinazolin-3 (4H)-yl)-L-threo-pentitol] | 9 |
| CNC(=O)c1ccc(Cc2cc3c(=O)n([C@H]4CCOC[C@@H]4O)cnc3c(F)c2C)cc1F [Example 21, 1,5-anhydro-2,3-dideoxy-3-(8-fluoro-6-(3-fluoro-4-(methylcarbamoyl)benzyl)-7-methyl-4-oxoquinazolin-3(4H)-yl)-L-threo-pentitol] | 20 |
| Cc1c(Cc2ccc(C(=O)NCCF)c(F)c2)cc2c(=O)n([C@H]3CCOC[C@@H]3O)cnc2c1C [Example 67, 1,5-anhydro-2,3-dideoxy-3-(6-(3-fluoro-4-((2-fluoroethyl)carbamoyl)benzyl)-7,8-dimethyl-4-oxoquinazolin-3 (4H)-yl)-L-threo-pentitol] | 5.3 |
| Cc1c(Cc2ccc(C(=O)N3CC(O)C3)cc2)cc2c(=O)n([C@H]3CCOC[C@@H]3O)cnc2c1C [Example 40, 1,5-anhydro-2,3-dideoxy-3-(6-(4-((3-hydroxyazetidin-1-yl)carbonyl)benzyl)-7,8-dimethyl-4-oxoquinazolin-3 (4H)-yl)-L-threo-pentitol] | 12 |
| COc1cc2ncn([C@H]3CCOC[C@@H]3O)c(=O)c2cc1Cc1ccc(-c2ccn(C)n2)nc1 [Example 63, 1,5-anhydro-2,3-dideoxy-3-(7-methoxy-6-((6-(1-methyl-1H-pyrazol-3-yl)pyridin-3-yl)methyl)-4-oxoquinazolin-3 (4H)-yl)-L-threo-pentitol] | 35 |
| Cc1c(Cc2ccc(C(=O)N[C@H]3CCOC[C@@H]3O)c(F)c2)cc2c(=O)n([C@H]3CCOC[C@@H]3O)cnc2c1C [Example 88, 2-fluoro-N-((3R,4S)-3-hydroxytetrahydro-2H-pyran-4-yl)-4-((3-((3R,4S)-3-hydroxytetrahydro-2H-pyran-4-yl)-7,8-dimethyl-4-oxo-3,4-dihydroquinazolin-6-yl)methyl)benzamide] | 16 |
| Cc1c(Cc2ccc(-c3cnn(CC(F)(F)F)c3)nc2)cc2c(=O)n([C@H]3CCOC[C@@H]3O)cnc2c1C [Example 74, 1,5-anhydro-2,3-dideoxy-3-(7,8-dimethyl-4-oxo-6-((6-(1-(2,2,2-trifluoroethyl)-1H-pyrazol-4-yl)pyridin-3-yl)methyl)quinazolin-3(4H)-yl)-L-threo-pentitol] | 7.1 |
| Cc1c(Cc2ccc(-c3cn(C)nn3)cc2)cc2c(=O)n([C@H]3CCOC[C@@H]3O)nnc2c1Cl [Example 20, 1,5-anhydro-3-(8-chloro-7-methyl-6-(4-(1-methyl-1H-1,2,3-triazol-4-yl)benzyl)-4-oxo-1,2,3-benzotriazin-3(4H)-yl)-2,3-dideoxy-L-threo-pentitol] | 2.9 |
| CNC(=O)c1ccc(Cc2cc3c(=O)n([C@H]4CCOC[C@@H]4O)cnc3c(Cl)c2C)cc1F [Example 10, 1,5-anhydro-3-(8-chloro-6-(3-fluoro-4-(methylcarbamoyl)benzyl)-7-methyl-4-oxoquinazolin-3(4H)-yl)-2,3-dideoxy-L-threo-pentitol] | 15 |
| Cc1c(Cc2ccc(-c3cnn(CC(=O)N(C)C)c3)nc2)cc2c(=O)n([C@H]3CCOC[C@@H]3O)cnc2c1C [Example 82, 1,5-anhydro-2,3-dideoxy-3-(6-((6-(1-(2-(dimethylamino)-2-oxoethyl)-1H-pyrazol-4-yl)pyridin-3-yl)methyl)-7,8-dimethyl-4-oxoquinazolin-3(4H)-yl)-L-threo-pentitol] | > 18 |
| Cc1c(Cc2ccc(-n3cccn3)cc2)cc2c(=O)n([C@H]3CCOC[C@@H]3O)cnc2c1C [Comparative Example 1, 3-((3R,4S)-3-hydroxytetrahydro-2H-pyran-4-yl)-7,8-dimethyl-6-(4-(1H-pyrazol-1-yl)benzyl)quinazolin-4(3H)-one, reference compound] | 0.83 |

The next lines start with the values.

| efflux ratio at 1 hr, 1 μM | SMILES |
| --- | --- |
| 11 | Cc1c(Cc2ccc(C(=O)NC(C)C)cc2)cc2c(=O)n([C@H]3CCOC[C@@H]3O)cnc2c1C [Example 36, 1,5-anhydro-2,3-dideoxy-3-(6-(4-(isopropylcarbamoyl)benzyl)-7,8-dimethyl-4-oxoquinazolin-3 (4H)-yl)-L-threo-pentitol] |
| 5.9 | Cc1c(Cc2ccc(C(=O)NC34CC(C3)C4)cc2)cc2c(=O)n([C@H]3CCOC[C@@H]3O)cnc2c1C [Example 42, 1,5-anhydro-3-(6-(4-(bicyclo[1.1.1]penta-1-ylcarbamoyl)benzyl)-7,8-dimethyl-4-oxoquinazolin-3 (4H)-yl)-2,3-dideoxy-L-threo-pentitol] |
| 12 | COC(C)(C)CNC(=O)c1ccc(Cc2cc3c(=O)n([C@H]4CCOC[C@@H]4O)cnc3c(C)c2C)cc1 [Example 31, 1,5-anhydro-2,3-dideoxy-3-(6-(4-((2-methoxy-2-methylpropyl)carbamoyl)benzyl)-7,8-dimethyl-4-oxoquinazolin-3 (4H)-yl)-L-threo-pentitol] |
| 23 | Cc1c(Cc2ccc(C(=O)NCC3CCCO3)cc2)cc2c(=O)n([C@H]3CCOC[C@@H]3O)cnc2c1C (stereo partly drawn) [Example 45, 1,5-anhydro-2,3-dideoxy-3-(7,8-dimethyl-4-oxo-6-(4-((tetrahydrofuran-2-ylmethyl)carbamoyl)benzyl)quinazolin-3 (4H)-yl)-L-threo-pentitol] |
| 24 | Cc1c(Cc2ccc(C(=O)NCC(=O)N(C)C)cc2)cc2c(=O)n([C@H]3CCOC[C@@H]3O)cnc2c1C [Example 30, 1,5-anhydro-2,3-dideoxy-3-(6-(4-((2-(dimethylamino)-2-oxoethyl)carbamoyl)benzyl)-7,8-dimethyl-4-oxoquinazolin-3 (4H)-yl)-L-threo-pentitol] |
| 24 | Cc1c(Cc2ccc(C(=O)NC(C)(C)CO)cc2)cc2c(=O)n([C@H]3CCOC[C@@H]3O)cnc2c1C [Example 48, 1,5-anhydro-2,3-dideoxy-3-(6-(4-((1-hydroxy-2-methylpropan-2-yl)carbamoyl)benzyl)-7,8-dimethyl-4-oxoquinazolin-3 (4H)-yl)-L-threo-pentitol] |
| 15 | COCCCNC(=O)c1ccc(Cc2cc3c(=O)n([C@H]4CCOC[C@@H]4O)cnc3c(C)c2C)cc1 [Example 38, 1,5-anhydro-2,3-dideoxy-3-(6-(4-((3-methoxypropyl)carbamoyl)benzyl)-7,8-dimethyl-4-oxoquinazolin-3 (4H)-yl)-L-threo-pentitol] |
| 24 | Cc1c(Cc2ccc(C(=O)NCCN3CCOCC3)cc2)cc2c(=O)n([C@H]3CCOC[C@@H]3O)cnc2c1C [Example 47, 1,5-anhydro-2,3-dideoxy-3-(7,8-dimethyl-6-(4-((2-(morpholin-4-yl)ethyl)carbamoyl)benzyl)-4-oxoquinazolin-3 (4H)-yl)-L-threo-pentitol] |
| 18 | Cc1c(Cc2ccc(C(=O)NC3CC(F)C3)cc2)cc2c(=O)n([C@H]3CCOC[C@@H]3O)cnc2c1C (stereo partly drawn) [Example 46, 1,5-anhydro-2,3-dideoxy-3-(6-(4-((3-fluorocyclobutyl)-carbamoyl)benzyl)-7,8-dimethyl-4-oxoquinazolin-3 (4H)-yl)-L-threo-pentitol] |
| 27 | Cc1c(Cc2ccc(C(=O)NCC3CCOCC3)cc2)cc2c(=O)n([C@H]3CCOC[C@@H]3O)cnc2c1C [Example 51, 1,5-anhydro-2,3-dideoxy-3-(7,8-dimethyl-4-oxo-6-(4-((tetrahydro-2H-pyran-4-ylmethyl)carbamoyl)-benzyl)quinazolin-3 (4H)-yl)-L-threo-pentitol] |
